This passage reports EC50 results from US8889854B2, “C-17 bicyclic amines of triterpenoids with HIV maturation inhibitory activity” (priority 2012, dated 2014).

The subject of the assay is recombinant NL4-3 virus (Renilla luciferase in nef, Gag P373S; NLRluc). Kind of assay: HIV Cell Culture Assay (luciferase reporter virus in MT-2 cells). The class given is cell-based. The following applies: Renilla, NL43, MT-2 cells infected for 4-5 days with NLRluc recombinants, luciferase activity. An outline of the steps: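 NLRluc reporter virus (Renilla luciferase replacing part of nef, Gag P373S), made by transfecting 293T cells, was used to infect MT-2 cells for 4-5 days in serial dilutions of inhibitor. Antiviral activity was quantified from luciferase activity measured with a premixed lysis/Dual Luciferase reagent.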
A general note: Reporter assays use an easily measured gene product as a stand-in for the process of interest.

Some results are limits rather than exact numbers.

As usually defined, the EC50 is the concentration giving half of the maximal effect. For `C=C(C)[C@@H]1CC[C@]2(NCCN3C[C@@H]4C[C@H]3CO4)CC[C@]3(C)[C@H](CC[C@@H]4[C@@]5(C)CC=C(C6=CC[C@H](C(=O)O)CC6)C(C)(C)[C@@H]5CC[C@]43C)[C@@H]12` [Example B9, (R)-4-((1R,3aS,5aR,5bR,7aR,11aS,11bR,13aR,13bR)-3a-((2-((1S,4S)-2-oxa-5-azabicyclo[2.2.1]heptan-5-yl)ethyl)amino)-5a,5b,8,8,11a-pentamethyl-1-(prop-1-en-2-yl)-2,3,3a,4,5,5a,5b,6,7,7a,8,11,11a,11b,12,13,13a,13b-octadecahydro-1H-cyclopenta[a]chrysen-9-yl)cyclohex-3-enecarboxylic acid], the EC50 was found to be 1.69 nM. As for `C=C(C)[C@@H]1CC[C@]2(NCCN3C[C@@H]4C[C@H]3CO4)CC[C@]3(C)[C@H](CC[C@@H]4[C@@]5(C)CC=C(C6=CC[C@@H](C(=O)O)CC6)C(C)(C)[C@@H]5CC[C@]43C)[C@@H]12` [Example B10, (S)-4-((1R,3 aS,5aR,5bR,7aR,11aS,11bR,13 aR,13bR)-3a-((2-((1S,4S)-2-oxa-5-azabicyclo[2.2.1]heptan-5-yl)ethyl)amino)-5a,5b,8,8,11a-pentamethyl-1-(prop-1-en-2-yl)-2,3,3a,4,5,5a,5b,6,7,7a,8,11,11a,11b,12,13,13a,13b-octadecahydro-1H-cyclopenta[a]chrysen-9-yl)cyclohex-3-enecarboxylic acid], the EC50 (reported as group A/B) was below 100 nM. `C=C(C)[C@@H]1CC[C@]2(NCCN3C[C@@H]4C[C@H]3CS4(=O)=O)CC[C@]3(C)[C@H](CC[C@@H]4[C@@]5(C)CC=C(C6=CC[C@H](C(=O)O)CC6)C(C)(C)[C@@H]5CC[C@]43C)[C@@H]12` [Example B11, (R)-4-((1R,3aS,5aR,5bR,7aR,11aS,11bR,13aR,13bR)-3a-((2-((1S,4S)-2,2-dioxido-2-thia-5-azabicyclo[2.2.1]heptan-5-yl)ethyl)amino)-5a,5b,8,8,11a-pentamethyl-1-(prop-1-en-2-yl)-2,3,3a,4,5,5a,5b,6,7,7a,8,11,11a,11b,12,13,13a,13b-octadecahydro-1H-cyclopenta[a]chrysen-9-yl)cyclohex-3-enecarboxylic acid]: the EC50 (reported as group A/B) was below 100 nM. Consider `C=C(C)[C@@H]1CC[C@]2(NCCN3C[C@@H]4C[C@H]3CS4(=O)=O)CC[C@]3(C)[C@H](CC[C@@H]4[C@@]5(C)CC[C@H](OC(=O)CC(C)(C)C(=O)O)C(C)(C)[C@@H]5CC[C@]43C)[C@@H]12` [Example B12, 4-(((1R,3aS,5aR,5bR,7aR,9S,11aR,11bR,13aR,13bR)-3a-((2-((1S,4S)-2,2-dioxido-2-thia-5-azabicyclo[2.2.1]heptan-5-yl)ethyl)amino)-5a,5b,8,8,11a-pentamethyl-1-(prop-1-en-2-yl)icosahydro-1H-cyclopenta[a]chrysen-9-yl)oxy)-2,2-dimethyl-4-oxobutanoic acid], for which the EC50 (reported as group A/B) was below 100 nM.
